Structures are written as SMILES. In brackets after ≈: the same amount, converted by molar mass. Read-outs that look alike come from different tables or passages of the source.

This experiment relates to Staphylococcus aureus (SAUR 9213). The experiment in a line: MIC by standard agar dilution method. It counts as cell-based. The following applies: Mueller Hinton agar, incubated overnight at 35° C. From the text:
The antibacterial agents of this invention have useful activity against a variety of organisms. The in vitro activity of compounds of this invention can be assessed by standard testing procedures such as the determination of minimum inhibitory concentration (MIC) by agar dilution as described in “Approved Standard. Methods for Dilution Antimicrobial Susceptibility Tests for Bacteria That Grow Aerobically”, 3rd. ed., published 1993 by the National Committee for Clinical Laboratory Standards, Villanova, Pa., USA. The in vitro MICs of test compounds are determined by a standard agar dilution method. A stock drug solution of each analog is prepared in the preferred solvent, usually DMSO:H2O (1:3). Serial 2-fold dilutions of each sample are made using 1.0 ml aliquots of sterile distilled water. To each 1.0 ml aliquot of drug is added 9 ml of molten Mueller Hinton agar medium. The drug-supplemented agar is mixed, poured into 15×100 mm petri dishes, and allowed to solidify and dry prior to inoculation. Vials of each of the test organisms are maintained frozen in the vapor phase of a liquid nitrogen freezer. Test cultures are grown overnight at 35° C. on the medium appropriate for the organism. Colonies are harvested with a sterile swab, and cell suspensions are prepared in Trypticase Soy broth (TSB) to equal the turbidity of a 0.5 McFarland standard. A 1:20 dilution of each suspension is made in TSB. The plates containing the drug supplemented agar are inoculated with a 0.001 ml drop of the cell suspension using a Steers replicator, yielding approximately 10^4 to 10^5 cells per spot. The plates are incubated overnight at 35° C. Following incubation the Minimum Inhibitory Concentration (MIC μg/ml), the lowest concentration of drug that inhibits visible growth of the organism, is read and recorded.
(In agar dilution, organisms are placed on agar that contains the substance at set levels.)

With `NC(=O)[C@H]1CN(c2ccc(N3C=CC(=NO)CC3)c(F)c2)C(=O)O1` (racemic) [Example 79, (5R)-3-[4-[3,4-Dihydro-4-(hydroxyimino)-1(2H)-pyridinyl]-3-fluorophenyl]-2-oxo-5-oxazolidinecarboxamide], where the note is “read-out: MIC”, the MIC came to 1 µg/mL (≈ 2.99 µM).

For the molecule `N=S1(=O)CCC(c2ccc(N3C[C@H](C(N)=O)OC3=O)cc2F)CC1` (stereo in doubt) [Example 56, (5R)-3-[4-(cis-1-Imino-1-oxido-1,1,3,4,5,6-hexahydro-2H-thiopyran-4-yl)-3-fluorophenyl]-2-oxo-5-oxazolidinecarboxamide], the MIC stood at 4 µg/mL (≈ 11.3 µM). Regarding `NC(=O)[C@H]1CN(c2cc(F)c([C@H]3CC[S@+]([O-])CC3)c(F)c2)C(=O)O1` [Example 47, (5R)-(−)-3-[3,5-Difluoro-4-(trans-tetrahydro-1-oxido-2H-thiopyran-4-yl)phenyl]-2-oxo-5-oxazolidinecarboxamide], the MIC (read-out: MIC) came to 4 µg/mL (≈ 11.2 µM). Regarding `CNC(=O)[C@H]1CN(c2cc(F)c([C@H]3CC[S@+]([O-])CC3)c(F)c2)C(=O)O1` [Example 48, (5R)-N-Methyl-3-[3,5-difluoro-4-(trans-tetrahydro-1-oxido-2H-thiopyran-4-yl)phenyl]-2-oxo-5-oxazolidinecarboxamide], where the note is “read-out: MIC”, the MIC was found to be 2 µg/mL (≈ 5.37 µM). Take `COC(=O)N1CC(C)(c2c(F)cc(N3C[C@H](C(N)=O)OC3=O)cc2F)C1` [Example 57, (5R)-(−)-3-[3,5-Difluoro-4-(1-methoxycarbonyl-3-methylazetidin-3-yl)phenyl]-2-oxo-5-oxazolidinecarboxamide]: the MIC (read-out: MIC) was found to be 8 µg/mL (≈ 21.7 µM). As for `CNC(=O)[C@H]1CN(c2cc(F)c(C3(C)CN(C(=O)OC)C3)c(F)c2)C(=O)O1` [Example 58, (5R)-(−)-N-Methyl-3-[3,5-difluoro-4-(1-methoxycarbonyl-3-methylazetidin-3-yl)phenyl]-2-oxo-5-oxazolidinecarboxamide], the minimum inhibitory concentration (MIC) (read-out: MIC) was 8 µg/mL (≈ 20.9 µM). Take `CN1C(=O)COc2cc(N3C[C@H](C(N)=O)OC3=O)ccc21` [Example 59, (5R)-3-(3,4-Dihydro-4-methyl-3-oxo-2H-1,4-benzoxazin-7-yl) -2-oxo-5-oxazolidinecarboxamide]: for the setting “read-out: MIC”, the MIC turned out to be 2 µg/mL (≈ 6.87 µM). Regarding `CNC(=O)[C@H]1CN(c2ccc3c(c2)OCC(=O)N3C)C(=O)O1` [Example 60, (5R)-N-Methyl-3-(3,4-dihydro-4-methyl-3-oxo-2H-1,4-benzoxazin-7-yl)-2-oxo-5-oxazolidinecarboxamide], the minimum inhibitory concentration (MIC) (read-out: MIC) is 2 µg/mL (≈ 6.55 µM). The same measure, in the same setting: next, `CN1C(=O)COc2cc(N3C[C@H](C(=O)NCCF)OC3=O)ccc21` [Example 61, (5R)-N-(2-Fluoroethyl)-3-(3,4-dihydro-4-methyl-3-oxo-2H -1,4-benzoxazin-7-yl)-2-oxo-5-oxazolidinecarboxamide]: 8 µg/mL (≈ 23.7 µM); `CN1C(=O)CSc2cc(N3C[C@H](C(N)=O)OC3=O)ccc21` [Example 62, (5R)-3-(3,4-Dihydro-4-methyl-3-oxo-2H-1,4-benzothiazin-7-yl)-2-oxo-5-oxazolidinecarboxamide]: 4 µg/mL (≈ 13 µM). As for `CNC(=O)[C@H]1CN(c2ccc3c(c2)SCC(=O)N3C)C(=O)O1` [Example 63, (5R)-N-Methyl-3-(3,4-dihydro-4-methyl-3-oxo-2H-1,4-benzothiazin-7-yl)-2-oxo-5-oxazolidinecarboxamide], the minimal inhibitory concentration (MIC) (read-out: MIC) was determined as 4 µg/mL (≈ 12.4 µM). Consider `NC(=O)[C@H]1CN(c2cc(F)c(N3C=CS(=O)(=O)CC3)c(F)c2)C(=O)O1` [Example 65, (5R)-3-[4-(1,1-dioxido-2,3-dihydro-4H-1,4-thiazin-4-yl)-3,5-difluorophenyl]-2-oxo-5-oxazolidinecarboxamide], for which the MIC (read-out: MIC) is 2 to 4 µg/mL (≈ 5.36 to 10.7 µM). Consider `NC(=O)[C@H]1CN(c2cc(F)c(N3CC=CC3)c(F)c2)C(=O)O1` [Example 66, (5R)-3-[4-(2,5-Dihydro-1H-pyrrol-1-yl)-3,5-difluorophenyl]-2-oxo-5-oxazolidinecarboxamide], for which, where the note is “read-out: MIC”, the MIC is 4 µg/mL (≈ 12.9 µM). As to `CN1C(=O)CCc2cc(N3C[C@H](C(N)=O)OC3=O)ccc21` [Example 67, (5R)-3-(1-Methyl-2-oxo-1,2,3,4-tetrahydroquinolin-6-yl)-2-oxo-5-oxazolidinecarboxamide], the MIC (read-out: MIC) amounted to 2 µg/mL (≈ 6.91 µM). `CNC(=O)[C@H]1CN(c2ccc3c(c2)CCC(=O)N3C)C(=O)O1` [Example 68, (5R)-N-Methyl-3-(1-methyl-2-oxo-1,2,3,4-tetrahydroquinolin-6-yl)-2-oxo-5-oxazolidinecarboxamide]: the minimal inhibitory concentration (MIC) (read-out: MIC) was 4 µg/mL (≈ 13.2 µM).

With `NC(=O)[C@H]1CN(c2ccc(N3C=CC(=O)CC3)c(F)c2)C(=O)O1` [Example 69, (5R)-3-[4-(4-Oxo-3,4-dihydro-1(2H)-pyridinyl)-3-fluorophenyl]-2-oxo-5-oxazolidinecarboxamide], the MIC (read-out: MIC) turned out to be 2 µg/mL (≈ 6.26 µM). For `CNC(=O)[C@H]1CN(c2ccc(N3C=CC(=O)CC3)c(F)c2)C(=O)O1` [Example 70, (5R)-N-Methyl-3-[4-(4-oxo-3,4-dihydro-1(2H)-pyridinyl)-3-fluorophenyl]-2-oxo-5-oxazolidinecarboxamide], the MIC (read-out: MIC) came out at 2 µg/mL (≈ 6 µM). For `CCNC(=O)[C@H]1CN(c2ccc(N3C=CC(=O)CC3)c(F)c2)C(=O)O1` [Example 71, (5R)-N-Ethyl-3-[4-(4-oxo-3,4-dihydro-1(2H)-pyridinyl)-3-fluorophenyl]-2-oxo-5-oxazolidinecarboxamide], the MIC (read-out: MIC) was 4 µg/mL (≈ 11.5 µM). As for `NC(=O)[C@H]1CN(c2ccc(N3C=CC(=O)CC3)cc2)C(=O)O1` [Example 72, (5R)-3-[4-(4-Oxo-3,4-dihydro-1(2H)-pyridinyl)phenyl]-2-oxo-5-oxazolidinecarboxamide], the MIC (read-out: MIC) came to 2 µg/mL (≈ 6.64 µM). In the case of `CNC(=O)[C@H]1CN(c2ccc(N3C=CC(=O)CC3)cc2)C(=O)O1` [Example 73, (5R)-N-Methyl-3-[4-(4-oxo-3,4-dihydro-1(2H)-pyridinyl)phenyl]-2-oxo-5-oxazolidinecarboxamide], the MIC (read-out: MIC) was 2 µg/mL (≈ 6.34 µM). For `CCNC(=O)[C@H]1CN(c2ccc(N3C=CC(=O)CC3)cc2)C(=O)O1` [Example 74, (5R)-N-Ethyl-3-[4-(4-oxo-3,4-dihydro-1(2H)-pyridinyl)phenyl]-2-oxo-5-oxazolidinecarboxamide], the MIC (read-out: MIC) came out at 8 µg/mL (≈ 24.3 µM). As for `O=C1C=CN(c2ccc(N3C[C@H](C(=O)NCCF)OC3=O)cc2)CC1` [Example 75, (5R)-N-(2-Fluoroethyl)-3-[4-(4-oxo-3,4-dihydro-1(2H)-pyridinyl)phenyl]-2-oxo-5-oxazolidinecarboxamide], for the setting “read-out: MIC”, the MIC was 8 µg/mL (≈ 23 µM).

Take `NC(=O)[C@H]1CN(c2cc(F)c(N3C=CC(=O)CC3)c(F)c2)C(=O)O1` [Example 76, (5R)-3-[4-(4-Oxo-3,4-dihydro-1(2H)-pyridinyl)-3,5-difluorophenyl]-2-oxo-5-oxazolidinecarboxamide]: the MIC (read-out: MIC) is 4 µg/mL (≈ 11.9 µM). For the molecule `CNC(=O)[C@H]1CN(c2cc(F)c(N3C=CC(=O)CC3)c(F)c2)C(=O)O1` [Example 77, (5R)-N-Methyl-3-[4-(4-oxo-3,4-dihydro-1(2H)-pyridinyl)-3,5-difluorophenyl]-2-oxo-5-oxazolidinecarboxamide], under “read-out: MIC”, the MIC was determined as 2 µg/mL (≈ 5.69 µM). In the case of `CCNC(=O)[C@H]1CN(c2cc(F)c(N3C=CC(=O)CC3)c(F)c2)C(=O)O1` [Example 78, (5R)-N-Ethyl-3-[4-(4-oxo-3,4-dihydro-1(2H)-pyridinyl)-3,5-difluorophenyl]-2-oxo-5-oxazolidinecarboxamide], the minimum inhibitory concentration (MIC) (read-out: MIC) was found to be 8 µg/mL (≈ 21.9 µM). Consider `CN1C(=O)C(F)(F)Oc2cc(N3C[C@H](C(N)=O)OC3=O)ccc21` [Example 80, (5R)-3-(2,2-Difluoro-4-methyl-3,4-dihydro-3-oxo-2H-1,4-benzoxazin-7-yl)-2-oxo-5-oxazolidinecarboxamide], for which the MIC (read-out: MIC) turned out to be 2 µg/mL (≈ 6.11 µM).

Turning to `CNC(=O)[C@H]1CN(c2ccc3c(c2)OC(F)(F)C(=O)N3C)C(=O)O1` [Example 81, (5R)-N-Methyl-3-(2,2-difluoro-4-methyl-3,4-dihydro-3-oxo-2H-1,4-benzoxazin-7-yl)-2-oxo-5-oxazolidinecarboxamide], the MIC (read-out: MIC) was 4 µg/mL (≈ 11.7 µM). Consider `CN1C(=S)CSc2cc(N3C[C@H](C(N)=O)OC3=O)ccc21` [Example 84, 3-(4-Methyl-3-thioxo-3,4-dihydro-2H-1,4-benzothiazin-7-yl)-2-oxo-5-oxazolidinecarboxamide], for which the MIC (read-out: MIC) was found to be 2 µg/mL (≈ 6.18 µM). Consider `CNC(=O)[C@H]1CN(c2ccc([C@H]3CC[S@+]([O-])CC3)c(F)c2)C(=O)O1` [Example 85, (5R)-N-Methyl-3-[3-fluoro-4-(trans-tetrahydro-1-oxido-2H-thiopyran-4-yl)phenyl]-2-oxo-5-oxazolidinecarboxamide], for which the MIC (read-out: MIC) was found to be 2 µg/mL (≈ 5.64 µM). Regarding `Cn1c(=O)oc2cc(N3C[C@H](C(N)=O)OC3=O)cc(F)c21` [Example 86, (5R)-3-(4-Fluoro-3-methyl-2-oxo-2,3-dihydro-6-benzoxazolyl)-2-oxo-5-oxazolidinecarboxamide], the MIC (read-out: MIC) came to 4 µg/mL (≈ 13.5 µM). With `CCn1c(=O)oc2cc(N3C[C@H](C(N)=O)OC3=O)cc(F)c21` [Example 87, (5R)-3-(3-Ethyl-4-fluoro-2-oxo-2,3-dihydro-6-benzoxazolyl) -2-oxo-5-oxazolidinecarboxamide], the MIC (read-out: MIC) amounted to 2 µg/mL (≈ 6.47 µM). For the molecule `CC(C)n1c(=O)oc2cc(N3C[C@H](C(N)=O)OC3=O)cc(F)c21` [Example 88, (5R)-3-(4-Fluoro-3-isopropyl-2-oxo-2,3-dihydro-6-benzoxazolyl)-2-oxo-5-oxazolidinecarboxamide], the minimum inhibitory concentration (MIC) (read-out: MIC) was determined as 4 µg/mL (≈ 12.4 µM).

For orientation: MIC means the lowest concentration that inhibits growth of the organism.

For the origin of these results see US7645781B2, “N-aryl-2-oxazolidinone-5-carboxamides and their derivatives” (Pfizer Inc, priority 2002, dated 2010).
